Test results from patent publication US20080249091A1, “Indoles Useful in the Treatment of Inflammation” (priority 2005, published 2008).
pIC50: −log10 of the molar value.

What follows are molecules tested against T1, mPGES-1 (Homo sapiens, UniProt O14684) (assay: mPGES-1 assay: conversion of PGH2 to PGE2, HPLC analysis). Details: mPGES-1 expressed in E. coli; 25 min preincubation with inhibitor at room temperature; PGH2 substrate 60 seconds; read-out: IC50 values (inhibition of mPGES-1).
T1 construct: made in house; host or cells: E. coli (membrane fraction)
T1 sequence (O14684 1-152): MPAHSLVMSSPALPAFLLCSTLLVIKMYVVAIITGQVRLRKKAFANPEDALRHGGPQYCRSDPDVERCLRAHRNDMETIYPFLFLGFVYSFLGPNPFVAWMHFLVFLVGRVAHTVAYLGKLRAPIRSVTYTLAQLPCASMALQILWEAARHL
Assay type: biochemical
Method: In the assay mPGES-1 catalyses the reaction where the substrate PGH2 is converted to PGE2. mPGES-1 is expressed in E. coli and the membrane fraction is dissolved in 20 mM NaPi-buffer pH 8.0 and stored at −80° C. In the assay mPGES-1 is dissolved in 0.1M KPi-buffer pH 7.35 with 2.5 mM glutathione. The stop solution consists of H2O/MeCN (7/3), containing FeCl2 (25 mM) and HCl (0.15 M). The assay is performed at room temperature in 96-well plates. Analysis of the amount of PGE2 is performed with reversed phase HPLC (Waters 2795 equipped with a 3.9×150 mm C18 column). The mobile phase consists of H2O/MeCN (7/3), containing TFA (0.056%), and absorbance is measured at 195 nm with a Waters 2487 UV-detector.
The following is added chronologically to each well: • 1. 100 μL mPGES-1 in KPi-buffer with glutathione. Total protein concentration: 0.02 mg/mL. • 2. 1 μL inhibitor in DMSO. Incubation of the plate at room temperature for 25 minutes. • 3. 4 μL of a 0.25 mM PGH2 solution. Incubation of the plate at room temperature for 60 seconds. • 4. 100 μL stop solution. • 180 μL per sample is analyzed with HPLC.

Row | Structure (SMILES) | pIC50
1 | CC(C)Oc1ccc(-n2c(C(=O)O)cc3cc(Oc4ccc(Cl)cc4)ccc32)cc1 [Example 10, 5-(4-Chlorophenoxy)-1-(4-isopropoxyphenyl)indole-2-carboxylic acid] | 6.62
2 | O=C(O)c1cc2cc(Oc3ccc(C4CCCCC4)cc3)ccc2n1-c1ccc(OC2CC2)cc1 [Example 21, 5-(4-Cyclohexylphenoxy)-1-(4-cyclopropoxyphenyl)indole-2-carboxylic acid] | 7.12
3 | O=C(c1ccc(Cl)cc1)c1ccc2c(c1)c(Cl)c(C(=O)O)n2-c1ccc(OC2CCCC2)cc1 [Example 40, 3-Chloro-5-(4-chlorobenzoyl)-1-(4-cyclopentyloxyphenyl)indole-2-carboxylic acid] | 6.21

Results, then the molecule that gave them:

Row | pIC50 | Structure (SMILES)
4 | 6.37 | CC(C)Oc1ccc(-n2c(C(=O)O)cc3cc(Oc4cccc(OC(C)C)c4)ccc32)cc1 [Example 1, 5-(3-Isopropoxyphenoxy)-1-(4-isopropoxyphenyl)indole-2-carboxylic acid]
5 | 5.43 | CC(C)Oc1ccc(-n2c(C(=O)O)cc3cc(Oc4cnc5ccccc5c4)ccc32)cc1 [Example 13, 1-(4-Isopropoxyphenyl)-5-(quinolin-3-yloxy)indole-2-carboxylic acid]
